Drawing on patent US20060094059A1, “Methods for identifying new drug leads and new therapeutic uses for known drugs” (Odyssey Thera, Inc., priority 2004, published 2006), this text covers IC50 and Assay activity for 1 molecule.

Assay [1] relates to glioblastoma (U-87 MG) cells. Kind of assay: MTT proliferation assay, glioblastoma. Format: cell-based. The conditions noted are these: Homo sapiens, Tumor Cell Glioblastoma (U-87 MG), 120 hours, read-out: Anti-proliferative IC-50. As to the method:
(§1) Cells were maintained in various media as follows: A549, LoVo and PC-3 (Ham's F12K medium with 2 mM L-glutamine and 1.5 g/L sodium bicarbonate), MIA PaCa-2 (Dulbecco's modified Eagle's medium with 4 mM L-glutamine and 4.5 g/L glucose), U87-MG (MEM+Earle's BSS). Medium for each cell line was supplemented with 10% FBS and […] Penecillin/Streptomycin. All cells were grown in incubators set at 37° C., 5% CO2. Thiazolyl Blue Tetrazolium Bromide (MTT) based proliferation assays were performed to assess the anti-proliferative activities of the compounds on these cells. Cells were seeded in 96 well plates at a density of 750 cells/well 24 hours prior to compound treatment. The cells were incubated with varying concentrations of compounds for 120 hours. […] Drug treatment was performed in 5 replicate wells. Background absorbance was established by wells containing medium but no cells. Vehicle (DMSO) only was used as control. MTT (Sigma-Aldrich, St. Louis, Mo.) was added to each well at a final concentration of 0.5 mg/ml. Following a 2 hour incubation at 37° C., medium in the wells was replaced with 0.15 ml DMSO. The plates were agitated for 15 min using a microtiter plate shaker.

The test system of assay [2] is non-small cell lung carcinoma (A549) cells. Kind of assay: MTT proliferation assay, NSCLC. It counts as cell-based, Human. The note with it: Homo sapiens, Tumor Cell NSCLC (A549), 120 hours, read-out: Anti-proliferative IC-50. As for the experimental part:
as §1

For assay [3], the system named is colon adenocarcinoma (LoVo) cells. The assay can be described thus: MTT proliferation assay, colon. The note with it: Homo sapiens, Tumor Cell Colon (LoVo), 120 hours, read-out: Anti-proliferative IC-50. Format: cell-based, Human. As to the method: as §1
The test system of another assay is Wee1:Cdc2. The assay can be described thus: Protein-fragment complementation assay Wee1:Cdc2. Format: cell-based, human. The note with it: hit in Wee1/Cdc2 assay; drugs screened at 10 micromolar. The text has this: To construct dynamic assays for protein-protein complexes, we used a protein-fragment complementation assay strategy (PCAs) in intact human cells. (A variety of other suitable assays, and reporter options, are described in detail below.) The principle of PCA is that complementary polypeptide fragments (F[1] and F[2]) of a reporter protein or enzyme will fold into an active form only if fused to two proteins which interact and bring the complementary fragments of the reporter protein into proximity. Reconstitution of the fragments of the reporter protein generates a fluorescent signal that can be quantified in intact cells, and the amount of the signal is proportional to the amount of the protein-protein complex used in constructing the assay. Given a suitable reporter type, the subcellular location of the complex can also be measured.
Reporter fragments for PCA were generated by oligonucleotide synthesis (Blue Heron Biotechnology, Bothell, Wash.), starting with the sequence of yellow fluorescent protein (YFP). First, oligonucleotides coding for polypeptide fragments YFP[1]and YFP[2] […] Next, PCR mutagenesis was used to generate the mutant fragments IFP[1] and IFP[2]. The IFP[1] fragment corresponds to YFP[1]-(F46L, F64L, M153T) and the IFP[2] fragment corresponds to YFP[2]-(V163A, S175G). […]

The subject of assay [4] is prostate adenocarcinoma (PC-3) cells. The assay can be described thus: MTT proliferation assay, prostate. Format: cell-based, Human. The conditions noted are these: Homo sapiens; Tumor Cell Prostate (PC-3); MTT, 120 hours; read-out: Anti-proliferative IC-50. As to the method: We used these methods to mine the known pharmacopeia for drugs with previously-unsuspected activity against cancer-related pathways. […] Hits from our cell-based screens were tested for antiproliferative activity in up to 5 different human tumor cell lines, as follows. First, drugs with significant activity in the cellular screen(s) were tested for their ability to block proliferation of a human tumor cell line (PC-3) at an initial concentration of 10 micromolar. For drugs with antiproliferative activity in PC-3 cells, dose-response curves to determine the IC50 for antiproliferative activity and additional tumor cell lines were tested to determine the breadth of activity. Methods for assessing the antiproliferative activity of the cell-based drug ‘hits’ are described below.
as §1

The test system of assay [5] is pancreatic carcinoma (MIA PaCa-2) cells. The assay can be described thus: MTT proliferation assay, pancreatic. It counts as cell-based, Human. The conditions noted are these: Homo sapiens, Tumor Cell Pancreatic (MIA PaCa-2), 120 hours, read-out: Anti-proliferative IC-50. As for the experimental part:
as §1

Regarding `CO[C@H]1[C@H](O)[C@H](O[C@H]2CC[C@@]3(C=O)[C@H](CC[C@@H]4[C@@H]3CC[C@]3(C)[C@@H](C5=CC(=O)OC5)CC[C@]43O)C2)O[C@@H](C)[C@@H]1O` [Peruvoside], the IC50 in assay [1] was 2 nM; in assay [2], 4 nM; in assay [3] it was 9 nM; in assay [4] it was 5 nM; in assay [5], 3 nM. Moreover, the Assay activity result with Wee1:Cdc2 is on record as “Wee1/Cdc2”.
